Earlier results in patent US11827443B2, “Aerosol foam dispenser” (The Procter & Gamble Company, priority 2021, dated 2023).

Conditions: in water at 20° C.

Structure (SMILES): CC(C)C [Isobutane]
- Water solubility at 20° C. (weight percent): <0.01% weight percent

Structure (SMILES): O=C=O [Carbon dioxide]
- Water solubility at 20° C. (weight percent): 0.8% weight percent

Structure (SMILES): [He] [Helium]
- Water solubility at 20° C. (weight percent): <0.01 weight percent

Structure (SMILES): CCCC [Butane]
- Water solubility at 20° C. (weight percent): <0.01% weight percent

Structure (SMILES): COC [Dimethyl ether]
- Water solubility at 20° C. (weight percent): 7% weight percent

Structure (SMILES): [N-]=[N+]=O [Nitrous oxide]
- Water solubility at 20° C. (weight percent): 0.12 weight percent
